Measurements taken from US20230067609A1, “ENDOPHYTIC MICROBES FOR GROWTH PROMOTION OF CROP PLANTS AND SUPPRESSION OF AGGRESSIVE INVASIVE PLANT SPECIES, BIOHERBICIDES COMPRISING THE SAME AND METHODS OF USE THEREOF” (priority 2018, published 2023).

How the values were obtained:
Format in all cases: in vivo
Poa annua = assay: Screen of short-chain organic acids for effects on roots, agarose medium, seeds inoculated with Pseudomonas strain SLB4; conditions: for Inhibitory Activity On Germination / Inhibitory Activity On Gravitropism / Inhibitory Activity On Hair Length / Inhibitory Activity On Root Length / Inhibitory Activity On Bact. Entry: organic acids 0-1 mM in 0.7% agarose, 7 days; for Inhibitory Activity On Bact. Entry: Pseudomonas strain SLB4
Poa reptans seedlings = assay: Seeds germinated on agarose with and without 0.05% arginine
From the text: In laboratory experiments, we germinated seeds of the grass Poa reptans on agarose with and without 0.05% arginine.
This is further evidence that exposure of plants to arginine results in excess production of reactive oxygen species (ROS).

[1] = test system: Phragmites australis plants; assay: Sodium butyrate applied to roots over a 6-week period; conditions: 10 mM applied to roots over a 6-week period

Compound	seedling growth inhibition (Poa annua)	Inhibitory Activity On Germination (Poa annua)	Inhibitory Activity On Gravitropism (Poa annua)	Inhibitory Activity On Hair Length (Poa annua)	Inhibitory Activity On Root Length (Poa annua)	Inhibitory Activity On Bact. Entry (Poa annua)	chlorophylls in shoot cells (Poa reptans seedlings; 0.05% arginine)	growth of shoots and roots (Poa reptans seedlings; 0.05% arginine in agarose, 7 days)	colonization of chloroplasts by bacteria (Poa reptans seedlings; 0.05% arginine, leaf cells, microscopy)	root hairs (Poa reptans seedlings; arginine-treated seedlings)	hydrogen peroxide around roots (Poa reptans seedlings; diaminobenzidine tetrahydrochloride stain)	superoxide in roots (Poa reptans seedlings; nitro blue tetrazolium staining)	effects on roots and shoots [1]
CCC(=O)O [Propionic, Propionic acid]	seedling growth inhibition occurred	No	Yes	Yes	Yes	Yes							
O=C(O)C(=O)O [Oxalic, Oxalic acid]	seedling growth inhibition occurred	No	Yes	Yes	Yes	Yes							
O=C(O)CC(O)(CC(=O)O)C(=O)O [Citric, Citric acid]	seedling growth inhibition occurred	No	Yes	Yes	Yes	No							
CCCCCC(=O)O [Hexanoic, Hexanoic acid]	seedling growth inhibition occurred	No	Yes	Yes	Yes	No							
CC(=O)O [Acetic, Acetic acid]	seedling growth inhibition occurred	No	No	No	Yes	No							
O=C(O)c1ccccc1 [Benzoic, Benzoic acid]	seedling growth inhibition occurred	No	Yes	Yes	Yes	No							
N=C(N)NCCC[C@H](N)C(=O)O [arginine]							lack evidence of chlorophylls	repression of shoots and roots	all chloroplasts were colonized by actively motile bacteria	longer root hairs	high levels of hydrogen peroxide around roots	higher presence of superoxide	
O=C(O)[C@]1(O)C[C@@H](O)[C@@H](O)[C@H](O)C1 [Quinic, Quinic acid]		No	No	No	No	No							
CCCC(=O)O [Butyric, Butyric acid]	seedling growth inhibition occurred	No	Yes	Yes	Yes	Yes							
CCCC(=O)[O-].[Na+] [sodium butyrate]													suppression of root and shoot growth, reduced root branching, root browning, and increased bacterial and fungal growth on roots
